Consider 6 compounds from patent US4668663A, “Renin inhibitors containing homophe^8” (Merck & Co., Inc., priority 1984, dated 1987).

Numbered stars: 1 amine (or outer) side, 2 acyl side, 3 side chain; on linkers, the order of the positions; unused ones are H or OH. Square brackets hold non-standard residues; d marks the D form. Peptide text beside a SMILES is read from it. * marks the point of attachment. ACHPA = O=C(C[C@H](O)[C@H](CC1CCCCC1)N[*:1])[*:2]; Sta = CC(C)C[C@H](N)[C@@H](O)CC(=O)O; hhPhe = N[C@@H](CCCc1ccccc1)C(=O)O; hPhe = N[C@@H](CCc1ccccc1)C(=O)O; Isovaleryl = CC(C)CC(=O)*; Boc = CC(C)(C)OC(=O)*

One assay has as its target T1, human kidney renin (Homo sapiens, UniProt P00797).
T1 construct: human kidney renin purified as described in Bangham; from tissue; host or cells: human kidney
T1 sequence (P00797 67-406): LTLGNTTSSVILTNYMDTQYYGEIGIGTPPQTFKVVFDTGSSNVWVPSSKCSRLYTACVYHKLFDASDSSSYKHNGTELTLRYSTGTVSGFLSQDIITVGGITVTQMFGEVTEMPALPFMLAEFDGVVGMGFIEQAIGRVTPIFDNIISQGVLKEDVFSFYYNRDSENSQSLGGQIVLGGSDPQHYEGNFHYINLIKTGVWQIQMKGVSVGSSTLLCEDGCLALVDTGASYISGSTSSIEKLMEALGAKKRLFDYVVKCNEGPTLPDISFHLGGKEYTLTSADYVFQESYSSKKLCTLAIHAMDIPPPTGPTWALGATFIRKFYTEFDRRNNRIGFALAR
Description: Inhibition of purified human kidney renin. It counts as biochemical. Particulars: dissociation constant of the inhibited enzyme-inhibitor complex. On the procedure:
(§1) Assays were carried out in order to determine the inhibitory potency of the peptides of the present invention. One assay measured the inhibition of hog kidney renin, and was in accordance with the procedure described in Rich et al., J. Med. Chem. 23: 27, 1980, except that a pH of 7.3 was used. Another assay measured the inhibition of human kidney renin purified as described in Bangham, D. R., Robertson, I., Robinson, J. I. S., Robinson, C. J., and Tree, M., Clinical Science and Molecular Medicine, 48 (Supp. 2): 136s-159s (1975), and further purified by affinity chromatography on pepstatin-aminohexyl-Sepharase as described in Poe, M., Wu., J. K., Florance, J. R., Radkey, J. A., Bennett, C. D., and Hoogsteen, K., J. Biol. Chem. 258: 2209-2216 (1983). The assay was also in accordance with Poe et al. cited above. Further assays measured human plasma renin and dog plasma renin in accordance with procedures described in Boger et al, Nature, 303: 81-84 (1983).
Results expressed as KI values refer to the dissociation constant of the inhibited enzyme-inhibitor complex. This KI value was obtained as described above. Pepstatin was used as an active control.

The target in the next assay is T2, human plasma renin (Homo sapiens, UniProt P00797).
T2 construct: Further assays measured human plasma renin and dog plasma renin; from tissue; host or cells: human plasma
T2 sequence (P00797 67-406): T1 sequence (P00797 67-406)
Description: Human plasma renin assay. It counts as biochemical. Particulars: read-out: Human Plasma I50. On the procedure:
as §1

For another assay, the target named is T3, dog plasma renin (Canis lupus familiaris, UniProt Q6DYE7).
T3 construct: Further assays measured human plasma renin and dog plasma renin; from tissue; host or cells: dog plasma
T3 sequence (Q6DYE7 66-403): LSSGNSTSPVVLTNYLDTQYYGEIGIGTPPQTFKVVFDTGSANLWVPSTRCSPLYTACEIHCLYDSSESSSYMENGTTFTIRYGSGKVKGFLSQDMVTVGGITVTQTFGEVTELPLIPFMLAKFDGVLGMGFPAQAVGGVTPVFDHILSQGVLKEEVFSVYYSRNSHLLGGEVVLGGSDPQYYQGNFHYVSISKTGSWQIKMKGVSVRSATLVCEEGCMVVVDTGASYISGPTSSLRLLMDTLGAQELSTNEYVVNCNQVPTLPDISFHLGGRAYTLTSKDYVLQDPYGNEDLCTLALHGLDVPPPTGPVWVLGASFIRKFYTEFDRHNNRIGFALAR
The assay can be described thus: Dog plasma renin assay. The class given is biochemical. Particulars: read-out: Dog Plasma I50. On the procedure:
as §1

The next assay relates to hog renin. As to conditions: after the injection of hog renin into nephrectomized rats (Gross et al.); cited from earlier work.

Regarding `CC(C)C[C@H](NC(=O)C[C@H](O)[C@H](CC1CCCCC1)NC(=O)[C@H](Cc1c[nH]cn1)NC(=O)[C@H](CCc1ccccc1)NC(=O)OC(C)(C)C)C(N)=O` [BOC--HomoPhe--His--ACHPA--Leu--NH2, BocHPhe--His--ACHPA--Leu--NH2], affinity at human kidney renin was put at a Ki of 1.17 nM. Besides, the results for the IC50 at human plasma renin and on dog plasma renin were 3.9 nM and 100 nM, respectively.
On to `COC(=O)[C@H](CC(C)C)NC(=O)C[C@H](O)[C@H](CC1CCCCC1)NC(=O)[C@H](Cc1c[nH]cn1)NC(=O)[C@H](CCc1ccccc1)NC(=O)OC(C)(C)C` [BOC--HomoPhe--His--ACHPA--Leu--OCH3, BocHPhe--His--ACHPA--Leu--OCH3], for which the affinity on human kidney renin, expressed as Ki, was 0.98 nM.
Regarding `COC(=O)[C@H](Cc1ccccc1)NC(=O)[C@H](CC(C)C)NC(=O)C[C@H](O)[C@H](CC1CCCCC1)NC(=O)[C@H](Cc1c[nH]cn1)NC(=O)[C@H](CCc1ccccc1)NC(=O)OC(C)(C)C` [BOC--HomoPhe--His--ACHPA--Leu--Phe--OCH3, BocHPhe--His--ACHPA--Leu--Phe--OCH3] (Boc-[hPhe]H[ACHPA]LF-OMe), the Ki on human kidney renin was found to be 0.39 nM. In addition, the IC50 at human plasma renin came to 4 nM; on dog plasma renin, 16 nM.
At human kidney renin, `CC(C)CC(=O)N[C@@H](Cc1c[nH]cn1)C(=O)N1CCC[C@H]1C(=O)N[C@@H](CCCc1ccccc1)C(=O)N[C@@H](Cc1c[nH]cn1)C(=O)N[C@@H](CC(C)C)[C@@H](O)CC(=O)N[C@@H](CC(C)C)C(=O)N[C@@H](Cc1ccccc1)C(N)=O` [N^α -Isovaleryl-L-Histidyl-L-Prolyl-L-Bishomophenylalanyl-L-Histidyl-(3S,4S)-Statyl-L-Leucyl-L-Phenylalanyl Amide] (Isovaleryl-HP[hhPhe]H[Sta]LF-NH2) registered a Ki of 90 nM. In addition, on dog plasma renin, the IC50 was 320 nM.
For `CC(C)CC(=O)N[C@@H](Cc1c[nH]cn1)C(=O)N1CCC[C@H]1C(=O)N[C@@H](CCc1ccccc1)C(=O)N[C@@H](Cc1c[nH]cn1)C(=O)N[C@@H](CC(C)C)[C@@H](O)CC(=O)N[C@@H](CC(C)C)C(=O)N[C@@H](Cc1ccccc1)C(N)=O` [N^α -Isovaleryl-L-Histidyl-L-Prolyl-L-Homophenylalanyl-L-Histidyl-(3S,4S)-Statyl-L-Leucyl-L-Phenylalanyl Amide] (Isovaleryl-HP[hPhe]H[Sta]LF-NH2), at human kidney renin, the affinity corresponds to a Ki of 0.33 nM. The IC50 came out at 0.14 nM on human plasma renin and 4.5 nM at dog plasma renin.
Regarding pepstatin, in the assay on hog renin, the “blood pressure in vivo” value is listed as “reduce blood pressure”.
